Columns and labels:
[1] = target: Death-associated protein kinase 3 (Homo sapiens) (UniProt O43293); conditions: at 10 µM
[2] = tested on: Epidermal growth factor receptor (Homo sapiens), P00533 [L861Q]; conditions: at 10 µM
[3] = target: Activated CDC42 kinase 1 (Homo sapiens, UniProt Q07912); conditions: at 10 µM
[4] = target: Ribosomal protein S6 kinase alpha-1 (Homo sapiens, UniProt Q15418); test: Selectivity interaction (Kinase screening (Nanosyn)) EUB0000604a RPS6KA1
[5] = target: Glycogen synthase kinase-3 alpha (Homo sapiens, UniProt P49840); test: Selectivity interaction (KinomeScan (DiscoverX)) EUB0001049a GSK3A; conditions: at 1 µM
[6] = target: Cyclin-dependent kinase 9 (Homo sapiens, UniProt P50750); test: Selectivity interaction (ActivX KiNativ screen (kinase selectivity in THP-1 cell lysates)) EUB0000639a CDK9; type: subcellular; conditions: lysate
Cyclin-dependent kinase 9, sequence (P50750 whole entry): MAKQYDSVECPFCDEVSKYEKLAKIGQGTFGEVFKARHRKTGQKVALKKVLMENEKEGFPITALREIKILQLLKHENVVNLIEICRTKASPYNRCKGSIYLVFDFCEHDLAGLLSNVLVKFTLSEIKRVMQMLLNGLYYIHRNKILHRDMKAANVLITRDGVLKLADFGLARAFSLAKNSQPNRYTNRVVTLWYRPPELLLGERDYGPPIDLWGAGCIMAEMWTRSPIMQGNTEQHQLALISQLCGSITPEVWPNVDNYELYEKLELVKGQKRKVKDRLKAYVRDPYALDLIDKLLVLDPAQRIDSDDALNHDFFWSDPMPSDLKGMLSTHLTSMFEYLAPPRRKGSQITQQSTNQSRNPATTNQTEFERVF

[7] = target: STE20-like serine/threonine-protein kinase (Homo sapiens, UniProt Q9H2G2); test: Selectivity interaction (ActivX KiNativ screen (kinase selectivity in THP-1 cell lysates)) EUB0000639a SLK; type: subcellular; conditions: lysate, at 0.01 µM
[8] = target: Bromodomain-containing protein 3 (Homo sapiens) (UniProt Q15059); test: Selectivity interaction (Bromodomain panel (DSF asssay)) EUB0000270b BRD3
[9] = target: Mitogen-activated protein kinase 1 (Homo sapiens, UniProt P28482)
[10] = target: Casein kinase I isoform alpha (Homo sapiens, UniProt P48729); test: Selectivity interaction (KinomeScan (DiscoverX)) EUB0000229b CSNK1A1; conditions: at 10 µM
Casein kinase I isoform alpha, sequence (P48729 2-337 limits assumed): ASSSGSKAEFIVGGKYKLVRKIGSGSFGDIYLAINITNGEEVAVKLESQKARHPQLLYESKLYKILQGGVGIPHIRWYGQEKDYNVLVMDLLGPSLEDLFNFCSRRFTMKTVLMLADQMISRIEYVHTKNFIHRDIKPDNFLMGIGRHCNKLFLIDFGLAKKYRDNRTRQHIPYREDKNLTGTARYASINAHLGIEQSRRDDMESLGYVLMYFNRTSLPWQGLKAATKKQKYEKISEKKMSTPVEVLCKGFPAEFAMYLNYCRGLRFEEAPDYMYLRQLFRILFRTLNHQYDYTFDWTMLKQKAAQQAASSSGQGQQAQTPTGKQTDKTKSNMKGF

[11] = target: Tyrosine-protein kinase ABL2 (Homo sapiens, UniProt P42684); test: Selectivity interaction (KinomeScan (DiscoverX)) EUB0000092b ABL2; conditions: at 10 µM
Tyrosine-protein kinase ABL2, sequence (P42684 whole entry): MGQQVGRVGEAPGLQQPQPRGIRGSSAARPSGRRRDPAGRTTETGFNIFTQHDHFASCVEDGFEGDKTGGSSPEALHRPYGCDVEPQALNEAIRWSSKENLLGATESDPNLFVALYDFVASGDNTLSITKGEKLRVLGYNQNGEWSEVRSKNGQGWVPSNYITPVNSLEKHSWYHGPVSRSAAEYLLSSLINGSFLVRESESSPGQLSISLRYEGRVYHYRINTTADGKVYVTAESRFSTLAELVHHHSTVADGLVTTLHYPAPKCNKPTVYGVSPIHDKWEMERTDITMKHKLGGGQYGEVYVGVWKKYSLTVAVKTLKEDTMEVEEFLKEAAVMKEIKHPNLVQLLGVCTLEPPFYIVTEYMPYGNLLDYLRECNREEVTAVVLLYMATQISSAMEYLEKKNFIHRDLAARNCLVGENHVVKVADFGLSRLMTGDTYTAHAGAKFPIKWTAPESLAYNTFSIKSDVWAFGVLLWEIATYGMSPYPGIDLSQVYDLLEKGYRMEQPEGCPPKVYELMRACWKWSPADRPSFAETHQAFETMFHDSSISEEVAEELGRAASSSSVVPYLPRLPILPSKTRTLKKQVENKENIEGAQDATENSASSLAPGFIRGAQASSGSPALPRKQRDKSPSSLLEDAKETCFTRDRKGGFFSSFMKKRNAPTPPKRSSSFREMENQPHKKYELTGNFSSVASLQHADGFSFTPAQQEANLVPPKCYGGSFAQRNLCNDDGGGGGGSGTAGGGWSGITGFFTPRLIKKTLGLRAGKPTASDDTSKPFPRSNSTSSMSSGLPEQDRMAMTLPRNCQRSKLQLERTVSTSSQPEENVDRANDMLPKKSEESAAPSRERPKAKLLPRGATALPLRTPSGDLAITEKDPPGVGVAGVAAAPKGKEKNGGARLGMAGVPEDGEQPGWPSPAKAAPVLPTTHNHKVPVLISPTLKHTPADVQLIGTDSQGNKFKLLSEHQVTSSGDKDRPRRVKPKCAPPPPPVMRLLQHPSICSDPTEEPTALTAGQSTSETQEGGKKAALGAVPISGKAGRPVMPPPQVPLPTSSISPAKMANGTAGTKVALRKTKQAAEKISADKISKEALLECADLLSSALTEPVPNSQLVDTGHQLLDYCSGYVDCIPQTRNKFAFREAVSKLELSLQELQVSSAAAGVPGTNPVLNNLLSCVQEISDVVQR

[12] = target: Serine/threonine-protein kinase SIK2 (Homo sapiens) (UniProt Q9H0K1); test: Selectivity interaction (KinomeScan (DiscoverX)) EUB0000092b SIK2; conditions: at 10 µM
Serine/threonine-protein kinase SIK2 (Homo sapiens), sequence (Q9H0K1 whole entry, looked up): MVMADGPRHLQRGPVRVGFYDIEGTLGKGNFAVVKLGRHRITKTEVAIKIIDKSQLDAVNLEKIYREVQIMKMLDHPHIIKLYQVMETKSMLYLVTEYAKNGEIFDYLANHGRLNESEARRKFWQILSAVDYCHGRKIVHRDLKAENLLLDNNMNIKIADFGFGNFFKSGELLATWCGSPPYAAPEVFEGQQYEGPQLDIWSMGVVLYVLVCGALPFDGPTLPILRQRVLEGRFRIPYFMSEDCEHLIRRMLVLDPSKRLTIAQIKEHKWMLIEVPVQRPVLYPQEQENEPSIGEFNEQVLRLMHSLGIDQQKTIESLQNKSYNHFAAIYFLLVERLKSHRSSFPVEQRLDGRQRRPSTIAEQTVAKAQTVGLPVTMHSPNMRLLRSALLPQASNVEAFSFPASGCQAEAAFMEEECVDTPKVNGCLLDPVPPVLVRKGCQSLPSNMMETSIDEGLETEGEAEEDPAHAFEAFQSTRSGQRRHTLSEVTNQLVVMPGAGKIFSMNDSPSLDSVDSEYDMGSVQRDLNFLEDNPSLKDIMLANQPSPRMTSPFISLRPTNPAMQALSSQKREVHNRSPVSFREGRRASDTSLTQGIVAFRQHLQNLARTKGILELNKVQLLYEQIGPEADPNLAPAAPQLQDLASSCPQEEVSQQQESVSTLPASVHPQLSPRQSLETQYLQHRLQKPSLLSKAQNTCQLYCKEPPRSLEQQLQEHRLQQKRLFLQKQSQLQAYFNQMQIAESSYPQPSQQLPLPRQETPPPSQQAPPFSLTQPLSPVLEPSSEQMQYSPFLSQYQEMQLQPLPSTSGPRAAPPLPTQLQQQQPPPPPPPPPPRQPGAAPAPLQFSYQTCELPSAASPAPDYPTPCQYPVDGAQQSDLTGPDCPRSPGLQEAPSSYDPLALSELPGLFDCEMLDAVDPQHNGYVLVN

[13] = target: Cyclin-dependent kinase 5 (Homo sapiens, UniProt Q00535); test: Selectivity interaction (KinomeScan (DiscoverX)) EUB0000045b CDK5
Cyclin-dependent kinase 5, sequence (Q00535 whole entry, looked up): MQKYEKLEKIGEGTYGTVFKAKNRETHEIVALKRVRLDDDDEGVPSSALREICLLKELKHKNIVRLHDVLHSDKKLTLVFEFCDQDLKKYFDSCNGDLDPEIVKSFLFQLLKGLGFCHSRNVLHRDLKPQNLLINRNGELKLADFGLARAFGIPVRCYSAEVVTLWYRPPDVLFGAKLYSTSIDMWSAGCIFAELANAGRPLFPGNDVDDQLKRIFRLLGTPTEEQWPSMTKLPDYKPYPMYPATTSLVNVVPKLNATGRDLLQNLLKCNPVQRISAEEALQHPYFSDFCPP

[14] = target: T1, Phosphatidylinositol 5-phosphate 4-kinase type-2 alpha (Homo sapiens) (UniProt P48426); test: Selectivity interaction (ActivX KiNativ screen (ex vivo kinase selectivity in human PBMCs)) EUB0001619a PIP4K2A; type: cell-based; conditions: PBMC, at 1 µM
T1 sequence (whole entry): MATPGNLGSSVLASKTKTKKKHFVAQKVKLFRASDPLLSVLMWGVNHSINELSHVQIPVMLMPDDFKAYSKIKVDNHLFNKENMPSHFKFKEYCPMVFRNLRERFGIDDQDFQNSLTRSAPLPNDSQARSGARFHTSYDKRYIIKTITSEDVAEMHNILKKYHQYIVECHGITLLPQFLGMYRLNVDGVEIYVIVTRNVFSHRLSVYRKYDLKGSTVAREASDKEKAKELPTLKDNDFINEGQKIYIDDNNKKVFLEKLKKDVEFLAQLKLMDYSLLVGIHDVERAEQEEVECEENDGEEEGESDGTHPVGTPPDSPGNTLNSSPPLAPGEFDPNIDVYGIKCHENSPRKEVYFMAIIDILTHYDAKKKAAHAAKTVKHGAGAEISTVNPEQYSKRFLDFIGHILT

[15] = target: T2, Serine/threonine-protein kinase TAO2 (Homo sapiens) (UniProt Q9UL54); test: Selectivity interaction (ActivX KiNativ screen (ex vivo kinase selectivity in human PBMCs)) EUB0001619a TAOK2; type: cell-based; conditions: PBMC, at 1 µM
T2 sequence (whole entry): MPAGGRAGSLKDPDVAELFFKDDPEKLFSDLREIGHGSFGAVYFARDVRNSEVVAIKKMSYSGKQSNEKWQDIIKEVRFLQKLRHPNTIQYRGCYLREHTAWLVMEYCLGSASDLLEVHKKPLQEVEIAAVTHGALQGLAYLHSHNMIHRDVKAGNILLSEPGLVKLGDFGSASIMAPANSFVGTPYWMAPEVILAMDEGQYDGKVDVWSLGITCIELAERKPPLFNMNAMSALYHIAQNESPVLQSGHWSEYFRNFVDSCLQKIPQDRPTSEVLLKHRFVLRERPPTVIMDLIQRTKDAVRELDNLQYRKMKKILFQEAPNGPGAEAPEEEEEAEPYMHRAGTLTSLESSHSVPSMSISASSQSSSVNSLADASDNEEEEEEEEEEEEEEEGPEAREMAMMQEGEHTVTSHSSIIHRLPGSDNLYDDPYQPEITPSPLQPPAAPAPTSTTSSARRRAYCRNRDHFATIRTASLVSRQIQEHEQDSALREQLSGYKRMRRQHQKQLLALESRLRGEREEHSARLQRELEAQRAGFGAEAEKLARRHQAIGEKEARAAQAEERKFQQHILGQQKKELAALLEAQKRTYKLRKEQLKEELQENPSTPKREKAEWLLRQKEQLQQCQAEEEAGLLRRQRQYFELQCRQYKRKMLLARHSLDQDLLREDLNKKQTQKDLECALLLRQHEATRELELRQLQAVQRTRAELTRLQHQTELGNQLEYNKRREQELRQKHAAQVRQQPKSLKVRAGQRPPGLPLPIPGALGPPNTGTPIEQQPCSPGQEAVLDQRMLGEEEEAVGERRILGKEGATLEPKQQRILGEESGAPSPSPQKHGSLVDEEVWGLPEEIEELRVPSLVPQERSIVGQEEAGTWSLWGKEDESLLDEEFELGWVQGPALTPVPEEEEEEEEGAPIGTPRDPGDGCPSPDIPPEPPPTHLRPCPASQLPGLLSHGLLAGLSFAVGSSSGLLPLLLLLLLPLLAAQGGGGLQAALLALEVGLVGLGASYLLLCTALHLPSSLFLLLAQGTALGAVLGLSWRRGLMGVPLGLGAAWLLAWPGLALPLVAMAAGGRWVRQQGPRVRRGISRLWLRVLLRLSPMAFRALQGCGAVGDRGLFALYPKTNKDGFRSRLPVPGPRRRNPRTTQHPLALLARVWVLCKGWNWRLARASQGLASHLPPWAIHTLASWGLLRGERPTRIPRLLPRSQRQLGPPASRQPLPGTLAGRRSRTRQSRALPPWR

[16] = target: Casein kinase II subunit alpha' (Homo sapiens) (UniProt P19784); test: Selectivity interaction (KinomeScan (DiscoverX)) EUB0000607a CSNK2A2; conditions: at 10 µM
[17] = target: Diacylglycerol kinase alpha (Homo sapiens) (UniProt P23743); test: Selectivity interaction (Kinase panel (KiNativ target engagement assay in Jurkat cells)) EUB0001635a DGKA; type: cell-based; conditions: Selectivity number of off-targets 0.0, Selectivity number of targets 233.0, Source Knowledge https://www.sciencedirect.com/science/article/pii/S2451945619300674?via%3Dihub, at 1 µM
Diacylglycerol kinase alpha (Homo sapiens), sequence (P23743 whole entry): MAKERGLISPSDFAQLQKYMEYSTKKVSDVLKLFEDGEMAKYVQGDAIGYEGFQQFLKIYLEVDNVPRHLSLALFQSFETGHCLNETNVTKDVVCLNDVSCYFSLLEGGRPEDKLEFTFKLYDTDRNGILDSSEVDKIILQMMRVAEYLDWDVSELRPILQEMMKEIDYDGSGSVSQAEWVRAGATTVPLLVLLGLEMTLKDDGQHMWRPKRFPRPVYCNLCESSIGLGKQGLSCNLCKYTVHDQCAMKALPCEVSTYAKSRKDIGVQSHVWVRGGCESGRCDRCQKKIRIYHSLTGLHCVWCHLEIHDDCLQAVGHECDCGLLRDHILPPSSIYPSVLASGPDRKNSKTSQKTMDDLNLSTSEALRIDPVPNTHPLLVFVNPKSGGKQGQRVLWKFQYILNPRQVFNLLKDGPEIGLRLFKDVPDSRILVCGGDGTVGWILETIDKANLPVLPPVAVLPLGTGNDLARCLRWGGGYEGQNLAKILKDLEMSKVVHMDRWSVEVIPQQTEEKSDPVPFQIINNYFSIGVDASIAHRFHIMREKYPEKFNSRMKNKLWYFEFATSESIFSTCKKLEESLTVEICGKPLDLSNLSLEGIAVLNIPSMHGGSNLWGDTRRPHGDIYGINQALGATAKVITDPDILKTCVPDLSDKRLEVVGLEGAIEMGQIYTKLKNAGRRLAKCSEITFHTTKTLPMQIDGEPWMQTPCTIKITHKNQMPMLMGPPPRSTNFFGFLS

Activated CDC42 kinase 1, sequence (Q07912 whole entry, looked up): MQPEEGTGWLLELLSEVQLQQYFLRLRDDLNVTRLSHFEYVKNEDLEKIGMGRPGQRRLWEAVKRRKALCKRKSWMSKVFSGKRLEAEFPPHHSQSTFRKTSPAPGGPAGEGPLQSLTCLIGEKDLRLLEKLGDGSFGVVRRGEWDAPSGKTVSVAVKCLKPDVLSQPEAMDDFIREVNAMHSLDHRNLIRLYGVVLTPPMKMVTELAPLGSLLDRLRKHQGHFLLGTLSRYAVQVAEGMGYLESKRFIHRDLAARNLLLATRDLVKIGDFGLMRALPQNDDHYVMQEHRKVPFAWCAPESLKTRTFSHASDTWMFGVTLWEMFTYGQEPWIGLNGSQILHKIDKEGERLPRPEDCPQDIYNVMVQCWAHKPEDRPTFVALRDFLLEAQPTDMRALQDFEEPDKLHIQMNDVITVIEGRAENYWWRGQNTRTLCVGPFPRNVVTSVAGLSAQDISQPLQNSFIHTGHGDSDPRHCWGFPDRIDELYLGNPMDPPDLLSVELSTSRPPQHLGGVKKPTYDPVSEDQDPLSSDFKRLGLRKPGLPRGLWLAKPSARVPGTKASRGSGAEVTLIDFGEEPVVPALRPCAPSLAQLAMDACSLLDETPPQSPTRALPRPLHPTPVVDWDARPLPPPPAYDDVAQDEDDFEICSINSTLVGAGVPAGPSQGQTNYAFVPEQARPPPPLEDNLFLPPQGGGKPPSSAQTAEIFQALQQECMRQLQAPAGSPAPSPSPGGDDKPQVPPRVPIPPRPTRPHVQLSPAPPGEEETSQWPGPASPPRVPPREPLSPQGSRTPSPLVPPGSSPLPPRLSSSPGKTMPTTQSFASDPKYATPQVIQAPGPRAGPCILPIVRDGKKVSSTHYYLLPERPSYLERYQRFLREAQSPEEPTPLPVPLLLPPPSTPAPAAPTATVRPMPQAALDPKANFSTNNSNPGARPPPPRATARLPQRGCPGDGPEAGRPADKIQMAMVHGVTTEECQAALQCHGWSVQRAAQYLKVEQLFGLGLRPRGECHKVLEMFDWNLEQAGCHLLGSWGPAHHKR

In the case of `Cc1cc([C@@H](C)Nc2ccccc2C(=O)O)c2nc(N3CCOCC3)cc(=O)n2c1` [AZD-6482], the % of control [1] is reported as 100%, the % of control [2] is reported as 100% and the % of control [3] is reported as 100%.
Work on `Cc1cnc(Nc2ccc(F)cc2Cl)nc1-c1c[nH]c(C(=O)N[C@H](CO)c2cccc(Cl)c2)c1` yielded a % of inhibition [4] of 4%.
Work on `COc1cc(Nc2nc(C)cc(-c3cnn4nc(OC)ccc34)n2)cc(C(F)(F)F)c1` yielded a % of control [5] of 100%.
For `CC[C@@H]1[C@H](F)C(=O)N[C@@H]1COc1nccc2cc(C(N)=O)c(OC)cc12` [ZIMLOVISERTIB], the % of inhibition ([6]; at 0.01 µM) was 16.2%, the % of inhibition ([6]; at 0.04 µM) was 0.9% and the % of inhibition ([6]; at 0.2 µM) was 2.5%. It also gave a % of inhibition ([6]; at 1 µM) of -1%, a % of inhibition ([6]; at 5 µM) of 33% and a % of inhibition [7] of -0.7%.
With `Cc1cc(CN)cc(C)c1-c1ncn(C)c1-c1cncn1C` the dTM [8] was -1.78 K.
With `CCc1cccc(CC)c1NC(=O)c1nn(C)c2c1CCc1cnc(Nc3ccc(C(=O)NC4CCN(C)CC4)cc3OC(F)(F)F)nc1-2` the IC50 [9] was > 10 µM.
With `COc1cc(N(C)c2ccnc3ccc(C(F)(F)F)cc23)cc(OC)c1OC` the % binding [10] was 90%.
`CCC(=O)N1CCN(c2ccc(-n3c(=O)ccc4cnc5ccc(-c6cnc7ccccc7c6)cc5c43)cc2C(F)(F)F)CC1` showed a % of control [11] of 99% and a % of control [12] of 23%.
Molecule `C=CC(=O)Nc1cc(-n2c(=O)ccc3cnc4ccc(-c5ccc(NS(C)(=O)=O)cc5)cc4c32)ccc1C` has a % of control ([13]; at 1 µM) of 88% and a % of control ([13]; at 10 µM) of 100%.
`N#Cc1cccc(-c2c[nH]c3ncnc(N4CCOCC4)c23)c1` showed a % of inhibition [14] of 2% and a % of inhibition [15] of -3%.
Work on `CNC(=O)Nc1ccc(-c2nc(N3CC4CCC(C3)O4)c3cnn(C4CCC5(CC4)OCCO5)c3n2)cc1` yielded a % of control [16] of 100%.
`C=CC(=O)Nc1ccc(C(=O)Nc2[nH]nc3c2CN(C(=O)N[C@H](CN(C)C)c2ccccc2)C3(C)C)cc1` was tested, and the % of engagement [17] was -18.9%.

Source: ChEMBL document CHEMBL5465560, “Selectivity Literature for EUbOPEN Chemogenomic Library” (2024)
